Columns and labels:
[1] = rat, in vivo
Method: Acamprosate or acamprosate prodrug was administered by oral gavage to groups of four to six adult male Sprague-Dawley rats (about 250 g). Animals were conscious at the time of the experiment. Acamprosate or acamprosate prodrug was orally (po) or colonically (ic) administered in 3.4% Phosal or 5% Phosal (53 MCT in 7.5% Tween 80 in 50 mM sodium phosphate buffer, pH 6.8) at a dose of 70 mg-equivalents acamprosate per kg body weight.
The percent relative bioavailability (F %) of acamprosate was determined by comparing the area under the acamprosate concentration vs time curve (AUC) following oral or colonic administration of an acamprosate prodrug or acamprosate with the AUC of the acamprosate concentration vs time curve following intravenous administration of acamprosate on a dose normalized basis.

[2] = cited from earlier work
cocaine conditioned mice = details: 100 mg/kg for 3 days; cited from earlier work
[3] = tested on: patients with alcohol dependence; details: patients with alcohol dependence abstinent at initiation of treatment; cited from earlier work
individual patients = details: doses from about 1,000 mg/day to about 2,000 mg/day; cited from earlier work
[4] = tested on: patients being treated for alcohol withdrawal; details: cited from earlier work

## CC(=O)NCCCS(=O)(=O)OCC1(C)CCC(=O)O1 (racemic) [Compound 6, rac-(2-Methyl-5-oxo-2-2,3,4-trihydrofuryl)methyl [3-(acetylamino)propyl]sulfonate]
other
  melting point: 63.1 to 64.8 °C

## CC(=O)NCCCS(=O)(=O)OCC(C)(C)[C@@H]1COC(=O)O1 [Compound 12, 2-((4R)-2-Oxo(1,3-dioxolan-4-yl))-2-methylpropyl[3-(acetylamino)propyl]sulfonate]
[1]
  acamprosate colonic bioavailability relative to the acamprosate colonic bioavailability of an equivalent dose of acamprosate itself: at least 5 times

## CC(=O)NCCCS(=O)(=O)O [acamprosate, 3-(Acetylamino)propylsulfonic acid]
[2]; doses of about 1-2 gm per day
  steady-state plasma concentration: 370 to 640 ng/mL
  time post-dose at which steady-state plasma concentration occurs: 3 to 8 h
[2]; humans, oral
  oral bioavailability: about 11%
Cocaine conditioned mice
  effect on relapse-like behavior: attenuated relapse-like behavior
[3]
  maintaining abstinence from alcohol: effective for maintaining abstinence from alcohol
Individual patients
  treatment of tardive dyskinesia, dystonia, and tic: effective in treating tardive dyskinesia, dystonia, and tic
[4]
  effect on sleep: improve sleep
